According to patent US6040320A, “2-substituted imidazoles useful in the treatment of inflammatory diseases” (Ortho-McNeil Pharmaceutical, Inc., priority 1998, dated 2000):
Like-named read-outs stand apart in the source and are kept apart here.

Columns and labels:
TNF-α = experiment: in vitro whole cell assay: LPS-stimulated TNF-α production in PBMC (ELISA); assay type: cell-based, human; conditions: read-out: TNF-α IC50
Method: In addition to the enzyme assay, the compounds of the invention were tested in an in vitro whole cell assay using peripheral blood mononuclear cells ("PBMC") which were obtained from human blood as follows. Freshly obtained venous blood was anticoagulated with heparin, diluted with an equal volume of phosphate buffered saline ("PBS") and placed in a sterile tube or other container. Aliquots (30 mL) of this mixture were transferred to centrifuge tubes which were underlaid with Ficoll-Hypaque (15 mL). The prepared tubes were centrifuged at 400×g without braking for 30 min at room temperature. Approximately 1/2 to 2/3 of the platelet layer above the mononuclear cell band was removed with a pipet. The majority of the mononuclear cell layer was carefully removed using a pipet and these PBMCs were diluted with PBS and spun at 600×g for 15 min. The resulting PBMCs were washed with another portion of PBS and spun at 400×g for 10 min at room temperature. The recovered pellets were diluted in low endotoxin RPMI/1% FCS culture medium and gave a cell concentration of 0.5-2.0 X 10^6 PMBC/mL. A small volume of the suspension was removed for counting on a hemocytometer and the remaining preparation was centrifuged at 200×g for 15 min at room temperature. The recovered pelleted PMBC were resuspended in RPMI/1% FCS to a concentration of 1.67×10^6 /mL.
To run the assay, the PBMC suspension (180 μL) was transferred to duplicate wells of a 96-well flat-bottom microtiter plate and incubated for 1 h at 37° C. A solution of test compound (10 μL: prepared at 20×the desired final concentration) was added to each well and the plate was incubated for 1 h at 37° C. A solution (10 μL) of LPS in RPMI/1% FCS (200 ng/mL) was added and the wells were incubated overnight at 37° C. The supernate (100 μL) was removed from each well and diluted with RPMI/1% FCS (400 μL). The samples were analyzed for TNF-α using a commercial ELISA kit (Genzyme). […] Since imidazoles which are unsubstituted at the 1-position are subject to tautomerization, the substituents listed for R1 and R2 are interchangeable when R3 is hydrogen.

p38 = biological target: T1, p38 (Homo sapiens, UniProt Q16539); experiment: in vitro inhibition of p38 (CPSB): purified recombinant 6xHis-p38, myelin basic protein substrate, 33P-ATP; assay type: biochemical
T1 construct: 6xHis (N); made in house; host or cells: E. coli
T1 sequence (Q16539 whole entry): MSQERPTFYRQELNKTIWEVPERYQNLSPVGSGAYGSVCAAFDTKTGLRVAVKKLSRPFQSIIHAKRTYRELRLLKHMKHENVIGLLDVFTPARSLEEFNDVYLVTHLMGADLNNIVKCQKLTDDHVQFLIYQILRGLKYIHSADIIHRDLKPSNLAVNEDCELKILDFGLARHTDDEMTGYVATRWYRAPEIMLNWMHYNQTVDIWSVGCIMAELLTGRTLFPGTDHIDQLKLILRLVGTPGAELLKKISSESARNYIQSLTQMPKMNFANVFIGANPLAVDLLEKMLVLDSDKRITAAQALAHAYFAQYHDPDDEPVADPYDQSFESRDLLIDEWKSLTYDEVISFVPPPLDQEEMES
Method: Compounds of the invention were measured for their ability to inhibit the activity of p38 by the following in vitro assay.
A solution (38 μL) of purified recombinant p38 (where the amount of enzyme was determined empirically considering the linear range of the assay and the acceptable signal to noise ratio; 6xHis-p38 expressed in E.coli), myelin basic protein substrate (also determined empirically), a buffer of pH 7.5 (Hepes:25 mM, MgCl2 :10 mM, MnCl2 :10 mM) were added to 92 wells of a 96-well round bottom polypropylene plate. The remaining wells were used for control ("CTRL") and background ("BKG"). The CTRL was prepared with the enzyme, substrate buffer and 2% DMSO, and the BKG was prepared with substrate buffer and 2% DMSO. A solution (12 μL) of the test compound in DMSO (compounds were diluted to 125 μM in 10% DMSO/H2 O and assayed at 25 μM where the final DMSO concentration was 2%) was added to the testing wells. The ATP/^33 P-ATP solution (10 μL: containing 50 μM unlabeled ATP and 1 μCi ^33 P-ATP) was added to all wells and the completed plates were mixed and incubated at 30° C. for 30 min. Icecold 50% TCA/10 mM sodium phosphate (60 μL) were added to each well and the plates were kept on ice for 15 min. The contents of each well were transferred to the wells of a 96-well filterplate (Millipore, MultiScreen-DP) and the filterplate was placed on a vacuum manifold, fitted with a waste collection tray. The wells were washed five times with 10% TCA/10 mM sodium phosphate (200 μL) under vacuum. MicroScint-20 scintillant was added, the plates were sealed using Topseal-S sheets and counted in a Packard TopCount scintillation counter using a ^33 P liquid program with color quench correction, where the output is in color quench-corrected cpm. The % inhibition of the test compounds was calculated by the following formula: % inhibition=[1-(sample-BKG)/(CTRL-BKG)]×100.
Although compounds were initially tested at 25 μM, if warranted the compounds were tested at 4-fold increments above and below that concentration. In addition, lC50 s were calculated for some compounds using the Deltagraph 4-parameter curve fitting program.

IC50 (TNF-α; human PBMC, LPS) [nM]	SMILES	other results
3	Fc1ccc(-c2nc(I)n(CCCc3ccccc3)c2-c2ccncc2)cc1 [Compound 75]	
200	CC(=O)NCCCSc1nc(-c2ccc(F)cc2)c(-c2ccncc2)[nH]1 [Compound 34]	
17	Cc1nc(-c2ccncc2)c(-c2ccc(F)cc2)n1CCCN1C(=O)c2ccccc2C1=O [Compound 63]	
20	CCc1nc(-c2ccncc2)c(-c2ccc(F)cc2)n1CCCN1C(=O)c2ccccc2C1=O [Compound 65]	
	Fc1ccc(-c2[nH]c(S)nc2-c2ccncc2)cc1 [Compound 21]	IC50 (p38): 1900 nM
	Fc1ccc(-c2[nH]c(SCC3CC3)nc2-c2ccncc2)cc1 [Compound 23]	IC50 (p38): 1000 to 1800 nM
80	OCCSCc1nc(-c2ccncc2)c(-c2ccc(F)cc2)[nH]1 [Compound 13, 5-(4-Fluorophenyl)-2-[4-hydroxy-2-thiabut-1-yl]4-(4-pyridyl)-imidazole]	
283	O=C1c2ccccc2C(=O)N1CCCCc1nc(-c2ccncc2)c(-c2ccc(F)cc2)[nH]1 [Compound 47]	
150	CS(=O)(=O)NCCCSc1nc(-c2ccc(F)cc2)c(-c2ccncc2)[nH]1 [Compound 32]	
10	Fc1ccc(-c2ncn(CCCc3ccncc3)c2-c2ccncc2)cc1 [Compound 84]	
362	Cc1nc(-c2ccc(F)cc2)c(-c2ccncc2)n1CCCN1C(=O)c2ccccc2C1=O [Compound 62]	
	CC(C)Sc1nc(-c2ccncc2)c(-c2ccc(F)cc2)[nH]1 [Compound 22]	IC50 (p38): 470 nM
	CCCCSc1nc(-c2ccncc2)c(-c2ccc(F)cc2)[nH]1 [Compound 40]	IC50 (p38): 280 to 700 nM
100	Cc1nc(-c2ccncc2)c(-c2ccc(F)cc2)n1CCCc1ccccc1 [Compound 69]	
6	CCc1nc(-c2ccc(F)cc2)c(-c2ccncc2)n1CCCc1ccccc1 [Compound 66]	
	CC(=O)OCCCCc1nc(-c2ccc(F)cc2)c(-c2ccncc2)n1COCC[Si](C)(C)C [Compound 44]	IC50 (TNF-α; Homo sapiens, PBMC): 150 nM
	C=CCSc1nc(-c2ccncc2)c(-c2ccc(F)cc2)[nH]1 [Compound 37]	IC50 (p38): 750 nM
1750	O=C1c2ccccc2C(=O)N1CCCCc1nc(-c2ccc(F)cc2)c(-c2ccncc2)n1Cc1ccccc1 [Compound 48]	
	C[Si](C)(C)CCOCn1c(CO)nc(-c2ccncc2)c1-c1ccc(F)cc1 [Compound 36]	CPSB % inhibition (p38; @ 5 μm): 6%

IC50 (TNF-α; human PBMC, LPS) [nM]	SMILES	other results
500	Fc1ccc(-c2c(-c3ccncc3)ncn2CCCc2cccnc2)cc1 [Compound 81]	
200	CCC(=O)Cn1cnc(-c2ccc(F)cc2)c1-c1ccncc1 [Compound 80]	
	CCCSc1nc(-c2ccncc2)c(-c2ccc(F)cc2)[nH]1 [Compound 1, 5(4)-(4-Fluorophenyl)2-(1-propyl)thio-4(5)-(4-pyridyl)-5(4)-imidazole]	IC50 (p38): 680 nM
1000	Fc1ccc(-c2c(-c3ccncc3)ncn2CCCc2ccncc2)cc1 [Compound 83]	
250	OCc1nc(-c2ccc(F)cc2)c(-c2ccncc2)[nH]1 [Compound 49]	
75	COCc1nc(-c2ccc(F)cc2)c(-c2ccncc2)n1CCCN1C(=O)c2ccccc2C1=O [Compound 58]	
200	O=C1c2ccccc2C(=O)N1CCCOCc1nc(-c2ccncc2)c(-c2ccc(F)cc2)n1CCCN1C(=O)c2ccccc2C1=O [Compound 54]	
175	O=C1c2ccccc2C(=O)N1CCCOCc1nc(-c2ccc(F)cc2)c(-c2ccncc2)n1CCCN1C(=O)c2ccccc2C1=O [Compound 53]	
30	CCCSCc1nc(-c2ccc(F)cc2)c(-c2ccncc2)[nH]1 [Compound 35]	
1250	O=C1c2ccccc2C(=O)N1CCCn1c(CO)nc(-c2ccncc2)c1-c1ccc(F)cc1 [Compound 55]	
200	CCOCCc1nc(-c2ccc(F)cc2)c(-c2ccncc2)n1CCCN1C(=O)c2ccccc2C1=O [Compound 61]	
445	O=C1c2ccccc2C(=O)N1CCCCn1c(I)nc(-c2ccc(F)cc2)c1-c1ccncc1 [Compound 77]	
80	CCc1nc(-c2ccc(F)cc2)c(-c2ccncc2)n1CCCN1C(=O)c2ccccc2C1=O [Compound 64]	
500	O=C1c2ccccc2C(=O)N1CCCn1cnc(-c2ccncc2)c1-c1ccc(F)cc1 [Compound 70]	
200	O=C1c2ccccc2C(=O)N1CCSCc1nc(-c2ccc(F)cc2)c(-c2ccncc2)[nH]1 [Compound 33]	
	CCOC(CCSc1nc(-c2ccncc2)c(-c2ccc(F)cc2)[nH]1)OCC [Compound 20]	IC50 (p38): 2000 nM
	CNC(=O)Sc1nc(-c2ccc(F)cc2)c(-c2ccncc2)[nH]1 [Compound 5, 5(4)-(4-Fluorophenyl)-2-(N-methylaminocarbonyl)thio-4(5)-(4-pyridyl)-imidazole]	CPSB % inhibition (p38; @ 20 μm): 81%
	O=C1c2ccccc2C(=O)N1CCCCc1nc(-c2ccncc2)c(-c2ccc(F)cc2)n1Cc1ccccc1 [Compound 43]	CPSB % inhibition (p38; @ 5 μm): 8%
500	O=C1c2ccccc2C(=O)N1CCCCn1cnc(-c2ccc(F)cc2)c1-c1ccncc1 [Compound 73]	

IC50 (TNF-α; human PBMC, LPS) [nM]	SMILES	other results
400	COCc1nc(-c2ccncc2)c(-c2ccc(F)cc2)n1CCCN1C(=O)c2ccccc2C1=O [Compound 60]	
175	O=C1c2ccccc2C(=O)N1CCCn1c(CCCCO)nc(-c2ccc(F)cc2)c1-c1ccncc1 [Compound 51]	
20	Fc1ccc(-c2ncn(CCCc3cccnc3)c2-c2ccncc2)cc1 [Compound 82]	
300	O=C1c2ccccc2C(=O)N1CCCCn1cnc(-c2ccncc2)c1-c1ccc(F)cc1 [Compound 72]	
800	O=C1c2ccccc2C(=O)N1CCCCn1c(I)nc(-c2ccncc2)c1-c1ccc(F)cc1 [Compound 76]	
200	Fc1ccc(-c2nc(Br)n(CCCc3ccccc3)c2-c2ccncc2)cc1 [Compound 74]	
200	O=C1c2ccccc2C(=O)N1CCCn1c(CCCCO)nc(-c2ccncc2)c1-c1ccc(F)cc1 [Compound 52]	
40	Fc1ccc(-c2ncn(CCOc3ccccc3)c2-c2ccncc2)cc1 [Compound 86]	
	C[Si](C)(C)CCOCn1c(C(=O)CCCO)nc(-c2ccncc2)c1-c1ccc(F)cc1 [Compound 9, 4-Hydroxy-1-[5-(4-fluorophenyl)-4-(4-pyridyl)-1-(2-(trimethylsilyl)ethoxymethyl)imidazol-2-yl]butanone]	IC50 (TNF-α; Homo sapiens, PBMC): > 10000 nM
1.5	Cc1nc(-c2ccc(F)cc2)c(-c2ccncc2)n1CCCc1ccccc1 [Compound 68]	
39	O=C1c2ccccc2C(=O)N1CCCn1cnc(-c2ccc(F)cc2)c1-c1ccncc1 [Compound 71]	
2000	Fc1ccc(-c2c(-c3ccncc3)ncn2CCOc2ccccc2)cc1 [Compound 85]	
> 10000	CCCCCCCCCCSc1nc(-c2ccc(F)cc2)c(-c2ccncc2)[nH]1 [Compound 41]	
275	O=C(NCCCSc1nc(-c2ccc(F)cc2)c(-c2ccncc2)[nH]1)c1ccc2ccccc2c1 [Compound 31]	
150	CC(=O)OCCCCc1nc(-c2ccc(F)cc2)c(-c2ccncc2)n1CCCN1C(=O)c2ccccc2C1=O [Compound 50]	
450	CCCCc1cc(-c2c(-c3ccc(F)cc3)nc(CO)n2CCCc2ccccc2)ccn1 [Compound 78]	
300	CCc1nc(-c2ccncc2)c(-c2ccc(F)cc2)n1CCCc1ccccc1 [Compound 67]	
600	CCC(=O)Cn1cnc(-c2ccncc2)c1-c1ccc(F)cc1 [Compound 79]	

SMILES	IC50 (TNF-α; human PBMC, LPS) [nM]	other results
CCCS(=O)(=O)Cc1nc(-c2ccncc2)c(-c2ccc(F)cc2)n1COCC[Si](C)(C)C [Compound 57]	5000	
